Data from PMC3071891 (Journal of inorganic biochemistry, 2010).
Like-named read-outs stand apart in the source and are kept apart here.

Tests used:
[1] = molecular target: T1, Giardia lamblia fructose 1,6-bisphosphate aldolase (GlFBPA) (Giardia intestinalis, UniProt A8B2U2); assay: GlFBPA inhibition constants, steady-state kinetics
[2] = molecular target: T1, Giardia lamblia fructose 1,6-bisphosphate aldolase (GlFBPA); conditions: read-out: GlFBPA inhibition constant (Ki); inert substrate analog; ref [25]; cited from earlier work

T1 sequence (A8B2U2 whole entry): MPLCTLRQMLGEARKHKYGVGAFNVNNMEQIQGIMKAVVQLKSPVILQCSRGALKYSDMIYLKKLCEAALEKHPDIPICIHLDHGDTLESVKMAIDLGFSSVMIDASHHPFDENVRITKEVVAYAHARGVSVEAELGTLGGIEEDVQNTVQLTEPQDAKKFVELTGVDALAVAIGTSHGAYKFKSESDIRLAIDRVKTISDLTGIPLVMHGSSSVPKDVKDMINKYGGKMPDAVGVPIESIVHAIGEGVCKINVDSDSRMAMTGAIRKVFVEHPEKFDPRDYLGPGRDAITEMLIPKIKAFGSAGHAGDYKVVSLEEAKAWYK

Compound | Ki [1] [µM] | Ki [2] [µM]
O=c1c(O)cccn1CP(=O)(O)O [Compound 1, N-phosphonomethyl-3-hydroxy-2-pyridone] | 1200 ± 200 | –
O=C(COP(=O)(O)O)[C@@H](O)[C@@H](O)[C@H](O)COP(=O)(O)O [TBP, tagatose 1,6-bisphosphate] | – | 1
